The values below come from patent US10669261B2, “Heteroarylhydroxypyrimidinones as agonists of the APJ receptor” (BRISTOL-MYERS SQUIBB COMPANY, priority 2015, dated 2020).

In this assay the target is T1, human APJ receptor (Homo sapiens, UniProt P35414).
T1 construct: expressed in transfected cells
T1 sequence (P35414 1-380): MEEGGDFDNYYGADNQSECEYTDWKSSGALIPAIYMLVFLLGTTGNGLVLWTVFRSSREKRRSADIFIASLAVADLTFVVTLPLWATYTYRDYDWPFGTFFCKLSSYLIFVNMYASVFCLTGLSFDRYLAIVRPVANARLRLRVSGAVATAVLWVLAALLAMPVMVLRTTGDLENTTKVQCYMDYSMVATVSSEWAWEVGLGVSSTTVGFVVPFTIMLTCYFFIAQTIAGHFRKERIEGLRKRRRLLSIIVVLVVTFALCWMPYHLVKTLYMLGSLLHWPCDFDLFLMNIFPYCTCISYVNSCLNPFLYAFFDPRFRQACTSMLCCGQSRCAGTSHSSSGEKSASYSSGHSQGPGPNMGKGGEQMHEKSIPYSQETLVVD
Briefly: Intracellular cAMP accumulation assay (APJ hcAMP, HTRF). Type of assay: cell-based. Conditions: Table 2; HEK293 cells stably expressing human APJ receptor; read-out: hAPJ cAMP EC50 Potency range. The method, boiled down:
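Inhibition of forskolin (2 μM)-driven cAMP, with […], measured by HTRF after 30 min room-temperature compound exposure of stably transfected HEK293 cells. cAMP read from a standard curve; variable-slope fit gives EC50, and maximal inhibition is normalised to (Pyr1)apelin-13 as 100%.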
In general terms: cAMP levels reflect the balance of adenylyl cyclase and phosphodiesterase activity.

pEC50: −log10 of the molar value.

Consider `CCCCc1nc(O)c(-c2nnc(Cc3noc4ccccc34)o2)c(=O)n1C(c1ccccc1)C(C)C` (stereo not drawn) [Example 115, 5-{5-[(1,2-benzoxazol-3-yl)methyl]-1,3,4-oxadiazol-2-yl}-2-butyl-6-hydroxy-3-(2-methyl-1-phenylpropyl)-3,4-dihydropyrimidin-4-one], for which the pEC50 (as a rule, −log10 of the EC50, conventionally taken in molar units) was 7.00 to 8.00.
For the compound `CCCCc1nc(O)c(-c2nnc(Cc3ccc(Cl)cn3)o2)c(=O)n1[C@@H](C)c1cccc(OC)c1` [Example 116, 2-butyl-5-{5-[(5-chloropyridin-2-yl)methyl]-1,3,4-oxadiazol-2-yl}-6-hydroxy-3-[(1S)-1-(3-methoxyphenyl)ethyl]-3,4-dihydropyrimidin-4-one], the pEC50 is 8.00 to 11.00.
As to `CCCCc1nc(O)c(-c2nnc(Cc3noc4ccccc34)o2)c(=O)n1[C@@H]1CCc2ccccc21` [Example 117, 5-{5-[(1,2-benzoxazol-3-yl)methyl]-1,3,4-oxadiazol-2-yl}-2-butyl-3-[(1R)-2,3-dihydro-1H-inden-1-yl]-6-hydroxy-3,4-dihydropyrimidin-4-one], the negative logarithm of the EC50 (pEC50) is 6.52 to 7.00.
Take `CCCCc1nc(O)c(-c2nnc(Cc3ccc(Cl)cn3)o2)c(=O)n1[C@@H](CC)c1ccccc1` [Example 118, 2-butyl-5-{5-[(5-chloropyridin-2-yl)methyl]-1,3,4-oxadiazol-2-yl}-6-hydroxy-3-[(1S)-1-phenylpropyl]-3,4-dihydropyrimidin-4-one]: the pEC50 was 8.00 to 11.00.
Then `CCCCc1nc(O)c(-c2nnc(Cc3ccc(Cl)cn3)o2)c(=O)n1[C@@H](C)c1ccccc1` [Example 119, 2-butyl-5-{5-[(5-chloropyridin-2-yl)methyl]-1,3,4-oxadiazol-2-yl}-6-hydroxy-3-[(1S)-1-phenylethyl]-3,4-dihydropyrimidin-4-one], with 8.00 to 11.00; and `CCCCc1nc(O)c(-c2nnc(Cc3ccc(Cl)cn3)o2)c(=O)n1[C@H](C)c1ccccc1` [Example 120, 2-butyl-5-{5-[(5-chloropyridin-2-yl)methyl]-1,3,4-oxadiazol-2-yl}-6-hydroxy-3-[(1R)-1-phenylethyl]-3,4-dihydropyrimidin-4-one], with 8.00 to 11.00; and `CCCCc1nc(O)c(-c2nnc(Cc3noc4ccccc34)o2)c(=O)n1C(C)c1cccnc1` (stereo not drawn) [Example 121, 5-{5-[(1,2-benzoxazol-3-yl)methyl]-1,3,4-oxadiazol-2-yl}-2-butyl-6-hydroxy-3-[1-(pyridin-3-yl)ethyl]-3,4-dihydropyrimidin-4-one], with 6.52 to 7.00.
Take `CCCCc1nc(O)c(-c2nnc(Cc3ccc(Cl)cn3)o2)c(=O)n1[C@@H]1CCc2ccccc21` [Example 122]: the pEC50 was 7.00 to 8.00.
Then `CCCCc1nc(O)c(-c2nnc(Cc3ccc(Cl)cn3)o2)c(=O)n1C(C)c1cccnc1` (stereo not drawn) [Example 123, 2-butyl-5-{5-[(5-chloropyridin-2-yl)methyl]-1,3,4-oxadiazol-2-yl}-6-hydroxy-3-[1-(pyridin-3-yl)ethyl]-3,4-dihydropyrimidin-4-one], with 7.00 to 8.00.
